Assay results from PubChem BioAssay (NCI).
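Five compound concentrations were applied to cells in 96-well plates for 48 hours; endpoints were derived by simple linear interpolation of the resulting dose-response curve. GI50 is the concentration that inhibits growth by half. TGI denotes the concentration required for complete inhibition of growth.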

Assays:
Assay in all cases: NCI tumour cell line growth inhibition, 48 h
[1] = tested on: K-562 leukemia
[2] = tested on: LOX IMVI melanoma
[3] = tested on: HOP-92 NSCLC
[4] = tested on: SW-620 colon
[5] = tested on: SK-MEL-5 melanoma
[6] = tested on: A498 renal
[7] = tested on: CAKI-1 renal
[8] = tested on: SF-295 CNS
[9] = tested on: OVCAR-8 ovarian
[10] = tested on: PC-3 prostate

SMILES	TGI [1]	TGI [2]	TGI [3]	TGI [4]	TGI [5]	TGI [6]	TGI [7]	TGI [8]	TGI [9]	GI50 [10]	TGI [10]	GI50 [1]	GI50 [2]	GI50 [3]	GI50 [4]	GI50 [8]	GI50 [9]
COc1ccc(Cc2c3cc(O)c(=O)cc-3ccn2C)cc1	> 100 µM	34.5 µM	> 100 µM	> 100 µM	> 76.1 µM	> 100 µM	> 100 µM	> 100 µM	> 100 µM								
C/C(=N\N=C(N)N)C(CN1CCCCC1)C(c1ccccc1)c1c(O)c2ccccc2oc1=O (stereo unspecified)	> 100 µM	> 100 µM	> 100 µM	> 100 µM		> 100 µM	> 100 µM	> 100 µM	> 100 µM								
Cc1c(C)c2ccc3oc4ccccc4c3c2oc1=O	> 100 µM	> 100 µM	> 100 µM	> 100 µM	> 100 µM	> 100 µM	> 100 µM	> 100 µM	> 100 µM								
CCOC(=O)c1cc(C(=O)c2ccc(OC)cc2)n2ccc(/C=C/c3cc[n+](CC(=O)c4ccc(OC)cc4)cc3)cc12	3.31 µM	3.66 µM	3.15 µM	4.02 µM				> 100 µM	8.32 µM	2.03 µM	5.96 µM	0.567 µM	1.51 µM	1.23 µM	1.72 µM	> 100 µM	2.02 µM
OCC1C(OCc2ccccc2)C(OCc2ccccc2)C(OCc2ccccc2)CN1Cc1ccccc1 (stereo unspecified)	> 100 µM	> 100 µM	44.8 µM	> 100 µM			> 100 µM	> 100 µM	> 100 µM		88.1 µM						
CCOC(OC(C)=O)[C@@H]1C=C[C@H](C)N(c2ccc([N+](=O)[O-])cc2)O1 (stereo partly specified)	> 26.7 µM	4.12 µM	16.2 µM	9.2 µM	13.4 µM	> 59.4 µM	24.3 µM	27.4 µM	4.55 µM								
CSc1ccc2c(cc1=O)[C@@H](NC(=O)c1cccc([N+](=O)[O-])c1)CCc1cc(O)c(O)c(O)c1-2	77.6 µM	32.2 µM	> 100 µM	61.1 µM		90.7 µM	> 100 µM	> 100 µM	> 100 µM								
CC(C)N(C(=O)C12C3C4C5(C#N)C3C1(C#N)C5C42C#N)C(C)C (stereo unspecified)	> 100 µM	> 100 µM		> 100 µM	> 100 µM	> 100 µM		> 100 µM	> 100 µM								
O=C(CCC(=O)Nc1ccc(Cl)c(Cl)c1)Cc1nc2ccccc2o1	> 100 µM	> 100 µM	> 100 µM	> 100 µM	> 100 µM	> 100 µM	> 100 µM	> 100 µM	> 100 µM								
COc1cc2cc(OC(C)=O)c3cc4c(cc3c2c(OC)c1OC)OCO4	> 100 µM	> 100 µM		> 100 µM	> 100 µM	> 100 µM		> 100 µM	> 100 µM								
Cc1nc2sccn2c1C(=O)NN	> 100 µM	> 100 µM	> 100 µM	> 100 µM	> 100 µM		> 100 µM	> 100 µM	> 100 µM								
